Measurements as given in ChEMBL document CHEMBL1153358, “Amide analogs of antifungal dioxane-triazole derivatives: synthesis and in vitro activities” (Bioorg Med Chem Lett, 2009).
≈ marks a conversion by molar mass, not a printed value.

What was measured:
[1] = system: Candida albicans; assay: Antifungal activity against Candida albicans SANK 51486; type: functional
[2] = system: Aspergillus flavus; assay: Antifungal activity against Aspergillus flavus SANK 18497; type: functional
[3] = system: Cryptococcus neoformans; assay: Antifungal activity against Cryptococcus neoformans TIMM 1855; type: functional
[4] = system: Candida albicans; assay: Antifungal activity against fluconazole-resistant Candida albicans TIMM3164; type: functional
[5] = system: Candida tropicalis; assay: Antifungal activity against Candida tropicalis ATCC 750; type: functional
[6] = system: Aspergillus fumigatus; assay: Antifungal activity against Aspergillus fumigatus SANK 10569; type: functional
[7] = system: Nakaseomyces glabratus; assay: Antifungal activity against Candida glabrata ATCC 90030; type: functional
[8] = system: Candida albicans; assay: Antifungal activity against Candida albicans ATCC 24433; type: functional
[9] = system: Candida albicans; assay: Antifungal activity against Candida albicans ATCC 64550; type: functional
[10] = system: Pichia kudriavzevii; assay: Antifungal activity against Candida krusei ATCC 6258; type: functional
[11] = system: Candida parapsilosis; assay: Antifungal activity against Candida parapsilosis ATCC 90018; type: functional; conditions: Lodderomyces parapsilosis
[12] = system: Aspergillus fumigatus; assay: Antifungal activity against Aspergillus fumigatus ATCC 26430; type: functional
[13] = Chemical stability assessed as half life in HCl; type: physicochemical
[14] = Bioavailability in rat at 20 mg/kg, po; type: ADME, organism-based; conditions: in vivo

SMILES | MIC [1] [µg/mL] | MIC [2] [µg/mL] | MIC [3] [µg/mL] | MIC [4] [µg/mL] | MIC [5] [µg/mL] | MIC [6] [µg/mL] | MIC [7] [µg/mL] | MIC [8] [µg/mL] | MIC [9] [µg/mL] | MIC [10] [µg/mL] | MIC [11] [µg/mL] | MIC [12] [µg/mL] | half-life [13] [h] | bioavailability [14] [%]
C[C@@H](S[C@H]1CO[C@H](c2ccc(C(=O)N3CCN(c4ccccc4)CC3)cc2)OC1)[C@](O)(Cn1cncn1)c1ccc(F)cc1F | 0.016 (≈ 0.0252 µM) | 2 (≈ 3.15 µM) | 0.016 (≈ 0.0252 µM) | 0.125 (≈ 0.197 µM) | 0.5 (≈ 0.786 µM) | 1 (≈ 1.57 µM) | 2 (≈ 3.15 µM) | – | – | – | – | – | – | –
C[C@@H](S[C@H]1CO[C@H](c2ccc(C(=O)Nc3ccc(C#N)cc3F)cc2)OC1)[C@](O)(Cn1cncn1)c1ccc(F)cc1F | ≤ 0.008 | 0.125 (≈ 0.205 µM) | 0.063 (≈ 0.103 µM) | 0.016 (≈ 0.0262 µM) | 0.031 (≈ 0.0509 µM) | 0.031 (≈ 0.0509 µM) | > 4 | – | – | – | – | – | – | –
CCC(C)n1ncn(-c2ccc(N3CCN(c4ccc(OCC5COC(Cn6cncn6)(c6ccc(Cl)cc6Cl)O5)cc4)CC3)cc2)c1=O (configuration not stated) [ITRACONAZOLE] | 0.031 (≈ 0.0439 µM) | 0.5 (≈ 0.709 µM) | 0.25 (≈ 0.354 µM) | 0.25 (≈ 0.354 µM) | 0.5 (≈ 0.709 µM) | 0.25 (≈ 0.354 µM) | 1 (≈ 1.42 µM) | 0.125 (≈ 0.177 µM) | 1 (≈ 1.42 µM) | 0.5 (≈ 0.709 µM) | 0.125 (≈ 0.177 µM) | 0.25 (≈ 0.354 µM) | – | –
Cc1ccc(NC(=O)c2ccc([C@H]3OC[C@H](S[C@H](C)[C@](O)(Cn4cncn4)c4ccc(F)cc4F)CO3)cc2)cc1 | ≤ 0.008 | 0.25 (≈ 0.431 µM) | 0.031 (≈ 0.0534 µM) | 0.016 (≈ 0.0276 µM) | ≤ 0.008 | 0.063 (≈ 0.108 µM) | 2 (≈ 3.44 µM) | – | – | – | – | – | – | –
C[C@@H](S[C@H]1CO[C@H](/C=C/C=C/c2ccc(F)cc2)OC1)[C@](O)(Cn1cncn1)c1ccc(F)cc1F | ≤ 0.008 | 0.25 (≈ 0.483 µM) | 0.016 (≈ 0.0309 µM) | 0.063 (≈ 0.122 µM) | 0.25 (≈ 0.483 µM) | 0.063 (≈ 0.122 µM) | 1 (≈ 1.93 µM) | – | – | – | – | – | – | –
C[C@@H](S[C@H]1CO[C@H](c2ccc(C(=O)Nc3ccc(C#N)c(C#N)c3)cc2)OC1)[C@](O)(Cn1cncn1)c1ccc(F)cc1F | ≤ 0.008 | 0.5 (≈ 0.811 µM) | 0.063 (≈ 0.102 µM) | 0.016 (≈ 0.0259 µM) | 0.031 (≈ 0.0503 µM) | 0.25 (≈ 0.405 µM) | > 4 | – | – | – | – | – | – | –
C[C@@H](S[C@H]1CO[C@H](c2ccc(C(=O)Nc3ccc(SC(F)(F)F)cc3)cc2)OC1)[C@](O)(Cn1cncn1)c1ccc(F)cc1F | ≤ 0.008 | 0.5 (≈ 0.75 µM) | 0.016 (≈ 0.024 µM) | 0.031 (≈ 0.0465 µM) | 0.031 (≈ 0.0465 µM) | 0.25 (≈ 0.375 µM) | 1 (≈ 1.5 µM) | – | – | – | – | – | – | –
C[C@@H](S[C@H]1CO[C@H](/C=C/C=C/c2ccc(C#N)cc2F)OC1)[C@](O)(Cn1cncn1)c1ccc(F)cc1F [EMBECONAZOLE] | ≤ 0.008 | 0.25 (≈ 0.461 µM) | 0.016 (≈ 0.0295 µM) | 0.063 (≈ 0.116 µM) | 0.25 (≈ 0.461 µM) | 0.063 (≈ 0.116 µM) | 1 (≈ 1.84 µM) | 0.016 (≈ 0.0295 µM) | 0.5 (≈ 0.922 µM) | 0.25 (≈ 0.461 µM) | 0.016 (≈ 0.0295 µM) | 0.063 (≈ 0.116 µM) | 0.107 | 113
C[C@@H](S[C@H]1CO[C@H](c2ccc(C(=O)N3CCSCC3)cc2)OC1)[C@](O)(Cn1cncn1)c1ccc(F)cc1F | 0.016 (≈ 0.0277 µM) | 4 (≈ 6.94 µM) | 0.031 (≈ 0.0538 µM) | 0.125 (≈ 0.217 µM) | 0.5 (≈ 0.867 µM) | 0.5 (≈ 0.867 µM) | 4 (≈ 6.94 µM) | – | – | – | – | – | – | –
C[C@@H](S[C@H]1CO[C@H](c2ccc(C(=O)Nc3nccs3)cc2)OC1)[C@](O)(Cn1cncn1)c1ccc(F)cc1F | ≤ 0.008 | 0.5 (≈ 0.872 µM) | 0.125 (≈ 0.218 µM) | 0.031 (≈ 0.054 µM) | 0.125 (≈ 0.218 µM) | 0.063 (≈ 0.11 µM) | 2 (≈ 3.49 µM) | – | – | – | – | – | – | –
C[C@@H](S[C@H]1CO[C@H](c2ccc(C(=O)Nc3ccc(C#N)cc3)cc2)OC1)[C@](O)(Cn1cncn1)c1ccc(F)cc1F | ≤ 0.008 | 0.125 (≈ 0.211 µM) | 0.031 (≈ 0.0524 µM) | ≤ 0.008 | 0.016 (≈ 0.027 µM) | 0.031 (≈ 0.0524 µM) | 2 (≈ 3.38 µM) | ≤ 0.008 | 0.25 (≈ 0.423 µM) | 0.063 (≈ 0.106 µM) | ≤ 0.008 | 0.031 (≈ 0.0524 µM) | 2.67 | 31.7
OC(Cn1cncn1)(Cn1cncn1)c1ccc(F)cc1F [FLUCONAZOLE] | 0.25 (≈ 0.816 µM) | > 4 | > 4 | > 4 | 2 (≈ 6.53 µM) | > 4 | > 4 | 0.5 (≈ 1.63 µM) | > 4 | > 4 | 0.5 (≈ 1.63 µM) | > 4 | – | –
C[C@@H](S[C@H]1CO[C@H](c2ccc3cc(C(=O)Nc4ccc(C#N)cc4)ccc3c2)OC1)[C@](O)(Cn1cncn1)c1ccc(F)cc1F | ≤ 0.008 | 0.25 (≈ 0.39 µM) | 0.063 (≈ 0.0982 µM) | 0.031 (≈ 0.0483 µM) | 0.016 (≈ 0.0249 µM) | 0.063 (≈ 0.0982 µM) | > 4 | – | – | – | – | – | – | –
C[C@@H](S[C@H]1CO[C@H](c2ccc(C(=O)Nc3ccc(C#N)cc3)cc2F)OC1)[C@](O)(Cn1cncn1)c1ccc(F)cc1F | ≤ 0.008 | 0.25 (≈ 0.41 µM) | 0.031 (≈ 0.0509 µM) | 0.031 (≈ 0.0509 µM) | ≤ 0.008 | 0.063 (≈ 0.103 µM) | 2 (≈ 3.28 µM) | – | – | – | – | – | – | –
